Like-named read-outs stand apart in the source and are kept apart here.
Assays:
[1] = target: phosphorylated MEK1 (Homo sapiens, UniProt Q02750); assay: MEK1 binding assay (HTRF, tracer displacement); conditions: for inhibition at 2 µM: read-out: % binding (2 µM); for inhibition at 20 µM: read-out: % binding (20 µM)
Method in brief: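 5 nM GST-tagged phosphorylated MEK1, 2 nM Eu anti-GST antibody and 20 nM kinase tracer 236 incubated with compound 30 min at room temperature in the dark.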

[2] = system: ERK pathway; assay: cells; type: cell-based, Human; conditions: for IC50: Homo sapiens, HEK293
Method: The effects of the inhibitors on the activation of ERK pathway were determined in TPA (12-O-tetradecanoylphorbol-13-acetate)-stimulated cells using the AP-1 luciferase reporter gene assay system. Activating protein-1 (AP-1) is the nuclear transcription factor which is a heterodimeric protein downstream of MAPK composed of dimers of the Fos and Jun proteins. The stable AP-1 dimers bind to DNA recognition elements (AP-1 response elements) and mediate transcriptional induction. AP-1 controls a number of cellular events including differentiation, proliferation and apoptosis. Simultaneously, the expression of AP-1 can be regulated in response to different extracellular stimuli, such as cytokines, growth factors, stress, and bacterial and viral infections. ERK pathway is the most important mediator which is closely related to these responses. Activation of ERK pathway causes induction of fos gene, and then the product heterodimerizes with the Jun protein to form the AP-1 dimers. These newly formed heterodimers can enhance the expression of c-jun through AP-1 binding sites in the c-jun promoter. TPA can increase levels of AP-1 proteins through activation of the ERK pathway.
3.4.2. AP-1 Luciferase Reporter Gene Assay
pAP1-Luc was constructed with pGL3-basic (Promega, Madison, WI. USA) and a fragment including the AP-1 response element (2× TRE) and T7 promoter. HEK 293 cells in 96-well plates were cultured at 5% CO2 at 37 °C in DMEM containing 10% FBS. When the confluence was up to 80%, cells were transinfected with pAP1-Luc using lipofectamine 2000 (Life Technologies, Carlsbad, CA. USA). At 24 h post transinfection, individual compounds with different concentrations (5, 10, 20, 30 μM) were added into cells using three wells for each concentration used. After incubation for 1 h, TPA (50 nM) was added. The cells were harvested after 4 h and luciferase activity was measured by using luciferase assay kit (Promega) with a luminometer.

[3] = system: EV71; assay: microbe, parasite or virus in culture; conditions: for EC50: Enterovirus A, EV71, HEK293
Method: (§1) To further examine the functional effects, we selected EV71 to perform the antiviral analysis. […] CC50 is the median cytotoxic concentration measured with the MTT assay.
(§2) RD cells were cultured in DMEM and up to 70%–80% confluence in 96-well plates. Compounds were added into the culture medium for 1 h prior to virus infection using four wells for each concentration used. The compounds were added at the following concentrations: 1.25, 2.5, 5, 10, 20, 40 μM. Then cells were infected withEV71 (a clinical strain denoted as EV71-BC08, GU475127) at a multiplicity of infection (MOI) of 1. Virus controls (untreated wells of infected cells), cell controls (cells and drugs only, using the same dilution range for each compound as the test wells) were included on the plate. The cytopathic effect (CPE) were examined at every 12 h intervals post-infection by using phase-contrast microscopy. […] The cytotoxicity (CC50) was assayed by the MTT method.

[4] = system: EV71; assay: microbe, parasite or virus in culture; conditions: for EC50: Enterovirus A, EV71, RD
Method: as §1, §2

[5] = system: unphosphorylated human MEK1; design: method as in PMID 16199156; conditions: inhibition of activation of unphosphorylated human MEK1; cited from earlier work

Chain of phosphorylated MEK1 (Q02750 whole entry): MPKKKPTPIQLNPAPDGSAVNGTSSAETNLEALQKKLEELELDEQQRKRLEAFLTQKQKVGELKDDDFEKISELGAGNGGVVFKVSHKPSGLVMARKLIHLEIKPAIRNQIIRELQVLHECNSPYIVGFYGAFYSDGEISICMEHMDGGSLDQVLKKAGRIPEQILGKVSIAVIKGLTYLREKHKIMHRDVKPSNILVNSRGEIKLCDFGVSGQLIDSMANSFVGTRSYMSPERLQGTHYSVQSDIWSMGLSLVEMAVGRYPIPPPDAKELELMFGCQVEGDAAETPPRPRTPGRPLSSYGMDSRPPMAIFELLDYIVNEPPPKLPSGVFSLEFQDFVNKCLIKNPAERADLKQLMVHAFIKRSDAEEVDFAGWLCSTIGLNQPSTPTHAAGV

Compound	IC50 [1]	inhibition at 2 µM [1]	inhibition at 20 µM [1]	inhibition of ERK pathway activation (in words) [2]	IC50 [2]	TI (CC50/IC50) [3]	EC50 [3]	TI (CC50/IC50) [4]	EC50 [4]	melting point	binding affinity (in words) [1]	IC50 ([1]; HTRF binding to GST tagged phosphorylated MEK1, read-out: IC50)	IC50 [5]
Cc1c(Cc2ccccc2)c(=O)oc2cc(OC(=O)N(C)C)ccc12 [Compound 13, 3-Benzyl-4-methyl-2-oxo-2H-chromen-7-yl dimethylcarbamate]	0.223 µM	75.6%	95.2%	more efficiently than U0126	5.4 ± 1.26 µM	29.85	3.29 µM	60.8	2.5 µM	130 to 133 °C	–	–	–
Cc1c(Cc2ccc(F)cc2)c(=O)oc2cc(OC(=O)N(C)C)ccc12 [Compound 17, 3-(4-Fluorobenzyl)-4-methyl-2-oxo-2H-chromen-7-yl dimethylcarbamate]	0.408 µM	71.6%	82.1%	more efficiently than U0126	4.06 ± 3.26 µM	–	–	16.36	5.25 µM	149 to 150 °C	–	–	–
CCc1c(Cc2ccc(F)cc2)c(=O)oc2cc(OC(=O)N(C)C)ccc12 [Compound 18, 4-Ethyl-3-(4-fluorobenzyl)-2-oxo-2H-chromen-7-yl dimethylcarbamate]	0.0546 µM	98.2%	99.4%	more efficiently than U0126	23.4 ± 1.11 µM	3.37	19.4 µM	7.29	10 µM	–	active	–	–
CCCc1c(Cc2ccc(F)cc2)c(=O)oc2cc(OC(=O)N(C)C)ccc12 [Compound 19, 3-(4-Fluorobenzyl)-2-oxo-4-propyl-2H-chromen-7-yl dimethylcarbamate]	0.158 µM	66.2%	87.6%	more efficiently than U0126	4.31 ± 2.14 µM	65.24	4.85 µM	190	3.98 µM	82 to 84 °C	–	–	–
CCCc1c(Cc2ccc(F)cc2)c(=O)oc2cc(OC(C)=O)ccc12 [Compound 33, 3-(4-Fluorobenzyl)-2-oxo-4-propyl-2H-chromen-7-yl acetate]	–	61.4%	72.2%	more efficiently than U0126	11.6 ± 1.2 µM	–	12.8 µM	–	18.5 µM	150 to 151 °C	–	0.252 µM	–
CCc1c(Cc2ccc(F)cc2)c(=O)oc2cc(OC(=O)c3ccccc3)ccc12 [Compound 67, 4-Ethyl-3-(4-fluorobenzyl)-2-oxo-2H-chromen-7-yl benzoate]	–	44.6%	21.3%	–	64.6 ± 1.74 µM	–	–	–	–	70 to 71 °C	inactive	–	–
Cc1c(Cc2ccc(F)cc2)c(=O)oc2cc(OC(=O)N(C)C)ccc12 [Compound G8935]	–	–	–	–	–	–	–	–	–	–	–	–	0.3 µM
